Reference: US11000033B2, “Ketone or oxime compound, and herbicide” (NISSAN CHEMICAL CORPORATION, priority 2014, dated 2021)

Legend:
Type in all cases: in vivo
[1] = test system: Echinochloa crus-galli var. crus-galli; test: Test Example 3: herbicidal effect by foliage application, Wagner pot (symbol H); settings: application herbicide amount 320 g/ha
How it was run: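 Rating at 3 weeks post-spray, by defined criteria. Treatment: emulsion diluted with water to a predetermined amount, applied evenly to foliage of 14-day-old plants raised in alluvial soil flooded 0.1–0.5 cm deep at 25–30 °C, rice co-sown.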

[2] = test system: directly sowed rice plant; test: Test Example 3: effect on crop by foliage application, Wagner pot (symbol b); settings: application herbicide amount 320 g/ha
How it was run: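 Steps: fill a 1/10000-are Wagner pot with alluvial soil; add water and mix to submerge at 0.1–0.5 cm depth; sow rice plus Echinochloa crus-galli var. crus-galli, Leptochloa chinensis and Cyperus difformis; grow in a 25–30 °C greenhouse.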

[3] = test system: Setaria viridis; test: Test Example 4: herbicidal effect by soil treatment (symbol G); settings: for G: Setaria viridis, herbicidal effect grade: 320 g/ha
How it was run: (§1)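 Seeds were sown in sterilized diluvial soil, covered with about 1.5 cm of soil, and the soil surface was sprayed with a water-diluted emulsion of the compound at a predetermined rate. Plants grew in a greenhouse at 25° C. to 30° C.; effects were scored visually 3 weeks after application.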

[4] = test system: Apera spica-venti; test: Test Example 4: herbicidal effect by soil treatment (symbol L); settings: for L: Apera spica-venti, herbicidal effect grade: 320 g/ha
How it was run: as §1

[5] = test system: Stellaria media; test: Test Example 4: herbicidal effect by soil treatment (symbol P); settings: for P: Stellaria media, herbicidal effect grade: 320 g/ha
How it was run: as §1

[6] = test system: soybean; test: Test Example 4: effect on crop by soil treatment (symbol d); settings: for d: soybean, effect grade on crop: 320 g/ha
How it was run: (§2)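 Crop seeds, among them rice, wheat, beet and rapeseed, were sown in sterilized diluvial soil and covered with about 1.5 cm of soil. Boxes were kept in a greenhouse at 25° C. to 30° C. for plant growth.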

[7] = test system: wheat; test: Test Example 4: effect on crop by soil treatment (symbol e); settings: for e: wheat, effect grade on crop: 320 g/ha
How it was run: as §2

[8] = test system: rapeseed; test: Test Example 4: effect on crop by soil treatment (symbol g); settings: for g: rapeseed, effect grade on crop: 320 g/ha
How it was run: as §2

[9] = test system: Digitaria ciliaris; test: Test Example 5: herbicidal effect by foliage application, plastic box (symbol F); settings: 320 g/ha, 3 weeks after application
How it was run: (§3)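 Sowing in sterilized diluvial soil, 14 days' greenhouse growth at 25° C. to 30° C., then uniform small-sprayer foliar application of aqueous emulsion dilution; plants scored three weeks afterwards.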

[10] = test system: Avena fatua; test: Test Example 5: herbicidal effect by foliage application, plastic box (symbol I); settings: 320 g/ha, 3 weeks after application
How it was run: as §3

[11] = test system: Alopecurus myosuroides; test: Test Example 5: herbicidal effect by foliage application, plastic box (symbol J); settings: 320 g/ha, 3 weeks after application
How it was run: as §3

[12] = test system: Lolium multiflorum Lam.; test: Test Example 5: herbicidal effect by foliage application, plastic box (symbol K); settings: 320 g/ha, 3 weeks after application
How it was run: as §3

[13] = test system: Apera spica-venti; test: Test Example 5: herbicidal effect by foliage application, plastic box (symbol L); settings: 320 g/ha, 3 weeks after application
How it was run: as §3

[14] = test system: Chenopodium album; test: Test Example 5: herbicidal effect by foliage application, plastic box (symbol O); settings: 320 g/ha, 3 weeks after application
How it was run: as §3

[15] = test system: Stellaria media; test: Test Example 5: herbicidal effect by foliage application, plastic box (symbol P); settings: 320 g/ha, 3 weeks after application
How it was run: as §3

[16] = test system: corn; test: Test Example 5: effect on crop by foliage application, plastic box (symbol c); settings: 320 g/ha, 3 weeks after application
How it was run: (§4)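 Diluvial soil, sterilized and boxed (21 × 13 × 7 cm), received spot-sown seed covered by about 1.5 cm soil; plants were then greenhouse-grown at 25–30° C.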

[17] = test system: rice plant; test: Test Example 5: effect on crop by foliage application, plastic box (symbol b); settings: 320 g/ha, 3 weeks after application
How it was run: as §4

[18] = application herbicide amount 320 g/ha

Structure (SMILES)	F: Digitaria ciliaris, herbicidal effect grade [9]	I: Avena fatua, herbicidal effect grade [10]	J: Alopecurus myosuroides, herbicidal effect grade [11]	herbicidal effect on H (Echinochloa crus-galli var. crus-galli), grade 0-5 [1]	effect on crop b (directly sowed rice plant), grade 0-5 [2]	G: Setaria viridis, herbicidal effect grade [3]	L: Apera spica-venti, herbicidal effect grade [4]	P: Stellaria media, herbicidal effect grade [5]	d: soybean, effect grade on crop [6]	e: wheat, effect grade on crop [7]	g: rapeseed, effect grade on crop [8]	F: Digitaria ciliaris, herbicidal effect (criteria 0-5) [9]	I: Avena fatua, herbicidal effect (criteria 0-5) [10]	J: Alopecurus myosuroides, herbicidal effect (criteria 0-5) [11]	K: Lolium multiflorum Lam., herbicidal effect (criteria 0-5) [12]	L: Apera spica-venti, herbicidal effect (criteria 0-5) [13]	O: Chenopodium album, herbicidal effect (criteria 0-5) [14]	P: Stellaria media, herbicidal effect (criteria 0-5) [15]	c: corn, effect on crop (criteria 0-5) [16]	b: directly sowed rice plant, effect on crop (criteria 0-5) [17]	further results
CON=C(CC1CC(O)=C(c2c(C)cc(Br)cc2C)C1=O)C1CC1 (stereo not shown) [9-002]	5 (Herbicidal ratio of 90% or more (almost completely withered))	5 (Herbicidal ratio of 90% or more (almost completely withered))	5 (Herbicidal ratio of 90% or more (almost completely withered))	–	–	–	–	–	–	–	–	–	–	–	–	–	–	–	–	–	H (Echinochloa crus-galli var. crus-galli) herbicidal effect grade ([1]; Table 24): 5 (Herbicidal ratio of 90% or more (almost completely withered)); b (directly sowed rice plant) effect on crop grade ([2]; Table 24): 5 (Herbicidal ratio of 90% or more (almost completely withered)); Herbicidal effect grade, G: Setaria viridis [3, 18]: 5 (Herbicidal ratio of 90% or more (almost completely withered)); Herbicidal effect grade, L: Apera spica-venti [4, 18]: 5 (Herbicidal ratio of 90% or more (almost completely withered)); Herbicidal effect grade, P: Stellaria media [5, 18]: 0 (Herbicidal ratio of 5% or lower (almost no effect)); Effect on crop grade, d: soybean [6, 18]: 0 (Herbicidal ratio of 5% or lower (almost no effect)); Effect on crop grade, e: wheat [7, 18]: 0 (Herbicidal ratio of 5% or lower (almost no effect)); Effect on crop grade, g: rapeseed [8, 18]: 0 (Herbicidal ratio of 5% or lower (almost no effect)); K: Lolium multiflorum Lam., herbicidal effect grade [12]: 5 (Herbicidal ratio of 90% or more (almost completely withered)); L: Apera spica-venti, herbicidal effect grade [13]: 5 (Herbicidal ratio of 90% or more (almost completely withered)); O: Chenopodium album, herbicidal effect grade [14]: 0 (Herbicidal ratio of 5% or lower (almost no effect)); P: Stellaria media, herbicidal effect grade [15]: 0 (Herbicidal ratio of 5% or lower (almost no effect)); c: corn, effect on crop grade [16]: 5 (Herbicidal ratio of 90% or more (almost completely withered)); b: directly sowed rice plant, effect on crop grade [17]: 5 (Herbicidal ratio of 90% or more (almost completely withered))
CON=C(C)CC1CC(OC(=O)COCC(F)(F)F)=C(c2c(C)cc(C)cc2C)C1=O (stereo not shown) [1-092]	–	–	–	5 (Herbicidal ratio of 90% or more (almost completely withered))	5 (Herbicidal ratio of 90% or more (almost completely withered))	5 (Herbicidal ratio of 90% or more (almost completely withered))	5 (Herbicidal ratio of 90% or more (almost completely withered))	0 (Herbicidal ratio of 5% or lower (almost no effect))	0 (Herbicidal ratio of 5% or lower (almost no effect))	4 (Herbicidal ratio of 70% or higher and lower than 90%)	4 (Herbicidal ratio of 70% or higher and lower than 90%)	5 (Herbicidal ratio of 90% or more (almost completely withered))	2 (Herbicidal ratio of 20% or higher and lower than 40%)	4 (Herbicidal ratio of 70% or higher and lower than 90%)	5 (Herbicidal ratio of 90% or more (almost completely withered))	5 (Herbicidal ratio of 90% or more (almost completely withered))	0 (Herbicidal ratio of 5% or lower (almost no effect))	0 (Herbicidal ratio of 5% or lower (almost no effect))	5 (Herbicidal ratio of 90% or more (almost completely withered))	5 (Herbicidal ratio of 90% or more (almost completely withered))	–
CON=C(C)CC1CC(OC(=O)COc2ccc(C=O)cc2)=C(c2c(C)cc(C)cc2C)C1=O (stereo not shown) [1-079]	–	–	–	5 (Herbicidal ratio of 90% or more (almost completely withered))	5 (Herbicidal ratio of 90% or more (almost completely withered))	5 (Herbicidal ratio of 90% or more (almost completely withered))	5 (Herbicidal ratio of 90% or more (almost completely withered))	0 (Herbicidal ratio of 5% or lower (almost no effect))	1 (Herbicidal ratio of 5% or higher and lower than 20%)	4 (Herbicidal ratio of 70% or higher and lower than 90%)	4 (Herbicidal ratio of 70% or higher and lower than 90%)	5 (Herbicidal ratio of 90% or more (almost completely withered))	5 (Herbicidal ratio of 90% or more (almost completely withered))	5 (Herbicidal ratio of 90% or more (almost completely withered))	5 (Herbicidal ratio of 90% or more (almost completely withered))	5 (Herbicidal ratio of 90% or more (almost completely withered))	0 (Herbicidal ratio of 5% or lower (almost no effect))	1 (Herbicidal ratio of 5% or higher and lower than 20%)	5 (Herbicidal ratio of 90% or more (almost completely withered))	5 (Herbicidal ratio of 90% or more (almost completely withered))	–
C=CC(CC1CC(O)=C(c2c(C)cc(C)cc2C)C1=O)=NOC (stereo not shown) [1-086]	–	–	–	5 (Herbicidal ratio of 90% or more (almost completely withered))	5 (Herbicidal ratio of 90% or more (almost completely withered))	4 (Herbicidal ratio of 70% or higher and lower than 90%)	3 (Herbicidal ratio of 40% or higher and lower than 70%)	0 (Herbicidal ratio of 5% or lower (almost no effect))	0 (Herbicidal ratio of 5% or lower (almost no effect))	0 (Herbicidal ratio of 5% or lower (almost no effect))	2 (Herbicidal ratio of 20% or higher and lower than 40%)	0 (Herbicidal ratio of 5% or lower (almost no effect))	4 (Herbicidal ratio of 70% or higher and lower than 90%)	4 (Herbicidal ratio of 70% or higher and lower than 90%)	5 (Herbicidal ratio of 90% or more (almost completely withered))	4 (Herbicidal ratio of 70% or higher and lower than 90%)	0 (Herbicidal ratio of 5% or lower (almost no effect))	0 (Herbicidal ratio of 5% or lower (almost no effect))	3 (Herbicidal ratio of 40% or higher and lower than 70%)	4 (Herbicidal ratio of 70% or higher and lower than 90%)	–
CC(CC1CC(O)=C(c2c(C)cc(C)cc2C)C1=O)=NOC(C)C (stereo not shown) [1-052]	5 (Herbicidal ratio of 90% or more (almost completely withered))	5 (Herbicidal ratio of 90% or more (almost completely withered))	5 (Herbicidal ratio of 90% or more (almost completely withered))	5 (Herbicidal ratio of 90% or more (almost completely withered))	5 (Herbicidal ratio of 90% or more (almost completely withered))	–	–	–	–	–	–	–	–	–	–	–	–	–	–	–	G (Setaria viridis) herbicidal effect grade [3, 18]: 5 (Herbicidal ratio of 90% or more (almost completely withered)); L (Apera spica-venti) herbicidal effect grade [4, 18]: 5 (Herbicidal ratio of 90% or more (almost completely withered)); P (Stellaria media) herbicidal effect grade [5, 18]: 0 (Herbicidal ratio of 5% or lower (almost no effect)); d (soybean) effect on crop grade [6, 18]: 0 (Herbicidal ratio of 5% or lower (almost no effect)); e (wheat) effect on crop grade [7, 18]: 5 (Herbicidal ratio of 90% or more (almost completely withered)); g (rapeseed) effect on crop grade [8, 18]: 3 (Herbicidal ratio of 40% or higher and lower than 70%); K: Lolium multiflorum Lam., herbicidal effect grade [12]: 5 (Herbicidal ratio of 90% or more (almost completely withered)); L: Apera spica-venti, herbicidal effect grade [13]: 5 (Herbicidal ratio of 90% or more (almost completely withered)); O: Chenopodium album, herbicidal effect grade [14]: 1 (Herbicidal ratio of 5% or higher and lower than 20%); P: Stellaria media, herbicidal effect grade [15]: 0 (Herbicidal ratio of 5% or lower (almost no effect)); c: corn, effect on crop grade [16]: 4 (Herbicidal ratio of 70% or higher and lower than 90%); b: directly sowed rice plant, effect on crop grade [17]: 5 (Herbicidal ratio of 90% or more (almost completely withered))
